The source of these data is US20050107257A1, “Derivatives of (1-benzyl-piperidine-4-yl)-diphenyl-methanol and their use as pesticide” (priority 2002, published 2005).

The subject of one data set is Heliothis virescens. Briefly: Action against Heliothis virescens caterpillars (sprayed soybean plants). The class given is in vivo. The following applies: 144 h, 400 ppm spray mixture, first-stage caterpillars, evaluation 6 days later, read-out: % activity (percentage reduction in population and percentage reduction in feeding damage). The procedure:
Young soybean plants are sprayed with an aqueous emulsion spray mixture comprising 400 ppm of test compound. After the spray-coating has dried, the soybean plants are populated with 10 caterpillars of Heliothis virescens in the first stage and placed in a plastics container. Evaluation is made 6 days later. The percentage reduction in population and the percentage reduction in feeding damage (% activity) are determined by comparing the number of dead caterpillars and the feeding damage on the treated plants with that on untreated plants.

A further data set relates to Plutella xylostella. Briefly: Action against Plutella xylostella caterpillars (sprayed cabbage plants). The class given is in vivo. The following applies: 72 h, 400 ppm spray mixture, third-stage caterpillars, evaluation 3 days later, read-out: % activity (percentage reduction in population and percentage reduction in feeding damage). Here is the method:
Young cabbage plants are sprayed with an aqueous emulsion spray mixture comprising 400 ppm of test compound. After the spray-coating has dried, the cabbage plants are populated with 10 caterpillars of Plutella xylostella in the third stage and placed in a plastics container. Evaluation is made 3 days later. The percentage reduction in population and the percentage reduction in feeding damage (% activity) are determined by comparing the number of dead caterpillars and the feeding damage on the treated plants with that on the untreated plants.

The next data set relates to Diabrotica balteata. The experiment in a line: Action against Diabrotica balteata larvae (sprayed maize seedlings). Particulars: 144 h, 400 ppm spray mixture, second-stage larvae, evaluation 6 days later, read-out: % activity (percentage reduction in population). In kind it is in vivo. The procedure: Maize seedlings are sprayed with an aqueous emulsion spray mixture comprising 400 ppm of the test compound. After the spray-coating has dried, the maize seedlings are populated with 10 Diabrotica balteata larvae in the second stage and placed in a plastics container. Evaluation is made 6 days later. The percentage reduction in population (% activity) is determined by comparing the number of dead larvae on the treated plants with that on untreated plants.

The subject of another data set is Spodoptera littoralis. The experiment in a line: Action against Spodoptera littoralis caterpillars (sprayed soybean plants). The class given is in vivo. The following applies: 72 h, 400 ppm spray mixture, third-stage caterpillars, evaluation 3 days later, read-out: % activity (percentage reduction in population and percentage reduction in feeding damage). Here is the method:
Young soybean plants are sprayed with an aqueous emulsion spray mixture comprising 400 ppm of test compound. After the spray-coating has dried, the soybean plants are populated with 10 caterpillars of Spodoptera littoralis in the third stage and placed in a plastics container. Evaluation is made 3 days later. The percentage reduction in population and the percentage reduction in feeding damage (% activity) are determined by comparing the number of dead caterpillars and the feeding damage on the treated plants with that on untreated plants.

A value given as a limit tells only on which side of the number the result lay.

By melting point is commonly meant the temperature, or range, at which the solid turns liquid. For `CCC1=C(C(O)(c2ccc(C(F)(F)F)cc2)c2ccc(C(F)(F)F)cc2)CC[N+]([O-])(Cc2ccc(NC(=O)OC(C)C)cc2)C1` (centres unmarked) [Compound 1.11], the melting point fell in the range of 207 to 211 °C.

On to `CC(C)OC(=O)Nc1ccc(C[N+]2([O-])CC[C@@H](C(O)(c3ccc(C(F)(F)F)cc3)c3ccc(C(F)(F)F)cc3)[C@H](C)C2)cc1` (some centres unmarked) [Compound 2.5], for which the melting point lay in the range of 188 to 190 °C. In the data set on Heliothis virescens, the inhibition at 400 ppm is over 80%. The inhibition at 400 ppm in the data set with Plutella xylostella was over 80%. Besides, in the data set on Diabrotica balteata, the inhibition at 400 ppm is over 80%. In the data set with Spodoptera littoralis, the inhibition at 400 ppm is over 80%.

The compound `CC(C)OC(=O)Nc1ccc(CN2CC[C@@H](C(O)(c3ccc(C(F)(F)F)cc3)c3ccc(C(F)(F)F)cc3)[C@H](C)C2)cc1` [Compound 2.6] gave a melting point of 66 to 67 °C. Further, the inhibition at 400 ppm in the data set with Heliothis virescens is over 80%. Moreover, in the data set on Plutella xylostella, the inhibition at 400 ppm is over 80%. Besides, the inhibition at 400 ppm in the data set on Diabrotica balteata is over 80%. Also, the inhibition at 400 ppm with Spodoptera littoralis is over 80%.
